The results in this text go back to PubChem BioAssay (NCI).

Test systems include HOP-92 NSCLC; KM12 colon; HT29 colon; SN12C renal; SW-620 colon; OVCAR-4 ovarian; HCT-15 colon; NCI/ADR-RES ovarian.
What all share (experiment): NCI-60 cell line screen, 48 h

Molecules are shown by their SMILES.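 Cells were grown in 96-well plates and exposed to each compound for 48 hours at five concentrations; endpoints were interpolated linearly between bracketing concentrations, or set to the highest concentration if not reached. Definition used: TGI = concentration required for complete inhibition of growth.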

On to `COc1ccc(C)cc1Nc1nnc(-c2ccccc2N)s1`, for which the TGI in the experiment on HOP-92 NSCLC, with KM12 colon, in the experiment with HT29 colon, in the experiment with SN12C renal, in the experiment on SW-620 colon and with OVCAR-4 ovarian was above 100 µM throughout. The TGI in the experiment with HCT-15 colon and in the experiment on NCI/ADR-RES ovarian was above 100 µM throughout.

Consider `Oc1c([Si](c2ccccc2)(c2ccccc2)c2ccccc2)cc2ccccc2c1-c1c(O)c([Si](c2ccccc2)(c2ccccc2)c2ccccc2)cc2ccccc12`, for which the TGI in the experiment on HOP-92 NSCLC, with KM12 colon, with HT29 colon, in the experiment with SW-620 colon, in the experiment on OVCAR-4 ovarian and in the experiment with HCT-15 colon was above 100 µM in each case. The compound further registered a TGI with NCI/ADR-RES ovarian above 100 µM.

Consider `CCOc1cc(C2CC(c3ccc(NS(=O)(=O)c4cc([N+](=O)[O-])ccc4C)cc3)=NN2c2ccc([N+](=O)[O-])cc2[N+](=O)[O-])ccc1O` (centres undefined), for which the TGI is 29.3 µM in the experiment on HOP-92 NSCLC; above 100 µM with KM12 colon; above 100 µM in the experiment on HT29 colon; 9.97 µM with SN12C renal; above 100 µM in the experiment on SW-620 colon; 11 µM with OVCAR-4 ovarian. For the same compound, the TGI in the experiment with HCT-15 colon was above 100 µM; with NCI/ADR-RES ovarian, 63.8 µM.

In the case of `CC1(C)CC(C)(C)C1=NNC(N)=O`, the TGI with HOP-92 NSCLC, in the experiment on KM12 colon, with HT29 colon, in the experiment with SN12C renal, in the experiment with SW-620 colon and with OVCAR-4 ovarian was above 100 µM each time. Further, the TGI in the experiment on HCT-15 colon and with NCI/ADR-RES ovarian was above 100 µM in each case.

Regarding `COc1cc(/C=C2\Sc3scc(-c4cccc([N+](=O)[O-])c4)[n+]3C2=O)cc(OC)c1OC`, the TGI in the experiment on HOP-92 NSCLC was determined as 73.9 µM; in the experiment with KM12 colon, 41.6 µM; with HT29 colon, 41.2 µM; with SN12C renal, 42.5 µM; in the experiment on SW-620 colon, 23 µM; in the experiment on OVCAR-4 ovarian it was 31.5 µM. In the experiment on NCI/ADR-RES ovarian, this compound had a TGI above 100 µM.

For the compound `N#Cc1ccccc1-c1nc2c3c(c(N)ccc3n1)C(=O)c1ccccc1-2`, the TGI in the experiment on HOP-92 NSCLC, with KM12 colon, in the experiment with HT29 colon, in the experiment on SN12C renal, in the experiment on SW-620 colon and in the experiment with OVCAR-4 ovarian was above 100 µM each time. The TGI with HCT-15 colon and with NCI/ADR-RES ovarian was above 100 µM throughout.

As to `COC(=O)c1c(O)ccc2c1c1c(n2Cc2cccc(C)c2)C(=O)c2ccccc2C1=O`, the TGI in the experiment on HOP-92 NSCLC is 19.8 µM; in the experiment on KM12 colon it was 28 µM; in the experiment with HT29 colon, 14 µM; in the experiment with SN12C renal it was 22.2 µM; in the experiment with SW-620 colon, 32.4 µM; in the experiment on OVCAR-4 ovarian it was 20.1 µM. The TGI was 24.2 µM with HCT-15 colon and 25 µM with NCI/ADR-RES ovarian.

For `CCOC(=O)c1cc2c3c(c(C(C)=O)c(O)c2[nH]1)N(CC(C)CC)CC3` (centres undefined), the TGI in the experiment on HOP-92 NSCLC, with KM12 colon, with HT29 colon, in the experiment with SN12C renal, in the experiment on SW-620 colon and in the experiment with OVCAR-4 ovarian was above 100 µM throughout. In addition, the TGI with HCT-15 colon and in the experiment on NCI/ADR-RES ovarian was above 100 µM each time.

For the compound `COc1ccc(-c2c(C#N)c(S)n(NS(=O)(=O)c3ccc(C)cc3)c(=O)c2C#N)cc1`, the TGI in the experiment on HOP-92 NSCLC is above 100 µM; with KM12 colon, 77.5 µM; in the experiment with HT29 colon it was above 100 µM; in the experiment with SN12C renal, 34.8 µM; in the experiment on SW-620 colon it was 34.7 µM; in the experiment with OVCAR-4 ovarian it was above 100 µM. Further, the TGI with HCT-15 colon was 32.4 µM; with NCI/ADR-RES ovarian it was 58.9 µM.

As for `COC(=O)C(Cc1ccccc1)NP(=O)(O)OCC1OC(n2cc(F)c(=O)[nH]c2=O)CC1O` (centres undefined), the TGI was above 55.2 µM in the experiment on HOP-92 NSCLC; above 100 µM in the experiment on KM12 colon; above 100 µM in the experiment with HT29 colon; above 100 µM with SN12C renal; above 100 µM in the experiment with SW-620 colon; above 100 µM in the experiment with OVCAR-4 ovarian. Moreover, the TGI in the experiment with HCT-15 colon and with NCI/ADR-RES ovarian was above 100 µM throughout.

`Nc1ncnc2c1nnn2C1CCC(CP(=O)(O)O)C1` (centres undefined): the TGI with HOP-92 NSCLC, in the experiment with KM12 colon, in the experiment on HT29 colon, in the experiment on SN12C renal, in the experiment with SW-620 colon and in the experiment on OVCAR-4 ovarian was above 100 µM in each case. Also, the TGI in the experiment with HCT-15 colon and with NCI/ADR-RES ovarian was above 100 µM each time.

Turning to `COc1ccccc1NC(=O)CC(=O)N1N=C(C)C(N=Nc2ccc(C(=O)O)cc2)C1=O` (centres undefined), the TGI with HOP-92 NSCLC, with KM12 colon, with HT29 colon, with SN12C renal, in the experiment with SW-620 colon and in the experiment with OVCAR-4 ovarian was above 100 µM each time. For the same compound, the TGI with HCT-15 colon and in the experiment on NCI/ADR-RES ovarian was above 100 µM in each case.

Consider `CC(=O)Oc1c2oc3ccc(Cl)cc3c(=O)c2c(O)c2ccsc12`, for which the TGI in the experiment on HOP-92 NSCLC, with KM12 colon, in the experiment on HT29 colon, in the experiment with SN12C renal, with SW-620 colon and in the experiment on OVCAR-4 ovarian was above 100 µM each time. Further, the TGI with HCT-15 colon and with NCI/ADR-RES ovarian was above 100 µM throughout.

As to `O=c1oc2ccccc2cc1-c1cn2cc(Cl)ccc2n1`, the TGI in the experiment with HOP-92 NSCLC was 36.4 µM; in the experiment with KM12 colon, 12.1 µM; in the experiment on HT29 colon it was above 59.8 µM; in the experiment with SN12C renal, 22.4 µM; with SW-620 colon, 31.7 µM; with OVCAR-4 ovarian, 12.8 µM. Moreover, the TGI in the experiment on HCT-15 colon was determined as 20.7 µM; with NCI/ADR-RES ovarian, 2.73 µM.

Regarding `COC(=O)C(CSSC[C@H](N/C(C)=C/C(C)=O)C(=O)OC)N/C(C)=C/C(C)=O` (some centres undefined), the TGI in the experiment on HOP-92 NSCLC, in the experiment with KM12 colon, in the experiment on HT29 colon, in the experiment with SN12C renal, in the experiment with SW-620 colon and with OVCAR-4 ovarian was above 100 µM each time. In addition, the TGI in the experiment with NCI/ADR-RES ovarian was above 100 µM.

Turning to `Cc1cn(Cc2cnnn2CC2OC(n3cc(C)c(=O)[nH]c3=O)CC2O)c(=O)[nH]c1=O` (centres undefined), the TGI in the experiment on HOP-92 NSCLC, with KM12 colon, in the experiment on SN12C renal, in the experiment on SW-620 colon, in the experiment on OVCAR-4 ovarian and with HCT-15 colon was above 100 µM each time. Further, the TGI in the experiment on NCI/ADR-RES ovarian is above 100 µM.
